Our source for the IC50 values is US10759783B2, “Biaryl inhibitors of Bruton'S tyrosine kinase” (BIOGEN MA INC., priority 2013, dated 2020).

Structures are written as SMILES. A value given as a limit tells only on which side of the number the result lay.

T1 sequence (Q06187 whole entry): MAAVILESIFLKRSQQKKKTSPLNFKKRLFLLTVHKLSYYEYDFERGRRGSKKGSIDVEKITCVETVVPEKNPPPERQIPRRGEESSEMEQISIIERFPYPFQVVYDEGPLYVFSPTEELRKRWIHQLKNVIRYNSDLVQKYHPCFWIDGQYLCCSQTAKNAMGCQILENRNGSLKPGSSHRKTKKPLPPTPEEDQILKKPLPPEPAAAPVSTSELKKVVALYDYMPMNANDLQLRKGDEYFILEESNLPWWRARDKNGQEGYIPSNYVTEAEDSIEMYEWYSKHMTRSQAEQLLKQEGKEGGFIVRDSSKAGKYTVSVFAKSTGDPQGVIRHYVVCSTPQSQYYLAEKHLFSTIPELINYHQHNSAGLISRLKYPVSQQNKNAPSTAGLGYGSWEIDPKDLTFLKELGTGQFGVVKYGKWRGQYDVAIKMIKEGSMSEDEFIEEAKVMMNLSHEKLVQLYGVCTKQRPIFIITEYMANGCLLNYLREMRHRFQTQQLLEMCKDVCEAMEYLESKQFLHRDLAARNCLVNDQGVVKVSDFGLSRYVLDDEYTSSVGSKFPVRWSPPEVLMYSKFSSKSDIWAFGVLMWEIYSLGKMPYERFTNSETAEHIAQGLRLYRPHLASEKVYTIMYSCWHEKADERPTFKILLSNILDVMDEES

The assay has as its target T1, BTK enzyme (Homo sapiens, UniProt Q06187).
T1 construct: purchased Upstate 14-552
In words: In vitro BTK kinase assay: BTK-POLYGAT-LS assay. In kind it is biochemical. To be noted: ATP 10 μM, read-out: IC50 (10uMATP). How it is done: The purpose of the BTK in vitro assay is to determine compound potency against BTK through the measurement of IC50. […] For a typical assay, a 24 μL aliquot of a ATP/peptide master mix (final concentration; ATP 10 μM, polyGAT 100 nM) in kinase buffer (10 mM Tris-HCl pH 7.5, 10 mM MgCl2, 200 μM Na3PO4, 5 mM DTT, 0.01% Triton X-100, and 0.2 mg/ml casein) is added to each well. […] The assay is incubated for 30 minutes before being stopped with 28 μL of a 50 mM EDTA solution. […] The plate is covered and incubated for 45 minutes at room temperature.
With `Cc1cc(-c2ccnc(Nc3cnn(C)c3)n2)cnc1CNC(=O)c1cnc(C(C)(C)C)s1` [Example I-100, 2-(tert-butyl)-N-((3-methyl-5-(2-((1-methyl-1H-pyrazol-4-yl)amino)pyrimidin-4-yl)pyridin-2-yl)methyl)thiazole-5-carboxamide], the half-maximal inhibitory concentration (IC50) fell in the range of 10 to 99 nM.

`Cc1cc(-c2ccnc(N)n2)ccc1CNC(=O)c1nc2c(s1)CCNCC2` [Example I-73, N-(4-(2-aminopyrimidin-4-yl)-2-methylbenzyl)-5,6,7,8-tetrahydro-4H-thiazolo[4,5-d]azepine-2-carboxamide]: the half-inhibitory concentration (IC50) fell in the range of 1000 to 10000 nM.

Regarding `Cc1cc(-c2ccnc(Nc3cnn(C)c3)n2)ccc1CNC(=O)c1cnn(C)c1` [Example I-157, 1-Methyl-N-(2-methyl-4-(2-((1-methyl-1H-pyrazol-4-yl)amino)pyrimidin-4-yl)benzyl)-1H-pyrazole-4-carboxamide], the IC50 fell in the range of 10 to 99 nM.

Consider `Cn1cc(Nc2cc(-c3ccc4c(c3)CCCC4NC(=O)c3cc4c(s3)CCOC4)ncn2)cn1` (stereo not drawn) [Example I-94, N-(6-(6-((1-methyl-1H-pyrazol-4-yl)amino)pyrimidin-4-yl)-1,2,3,4-tetrahydronaphthalen-1-yl)-6,7-dihydro-4H-thieno[3,2-c]pyran-2-carboxamide], for which the IC50 is 100 to 999 nM.

With `Cc1cc(-c2ccnc(Nc3cnn(C)c3)n2)ccc1CNC(=O)NC12CCC(CC1)CC2` [Example I-22, 1-(bicyclo[2.2.2]octan-1-yl)-3-(2-methyl-4-(2-((1-methyl-1H-pyrazol-4-yl)amino)pyrimidin-4-yl)benzyl)urea], the IC50 was 10 to 99 nM.

As for `Cc1cc(-c2ccnc(Nc3cnn(C)c3)n2)ccc1CNC(=O)C1CCN(C)CC1` [Example I-16, 1-methyl-N-(2-methyl-4-(2-((1-methyl-1H-pyrazol-4-yl)amino)pyrimidin-4-yl)benzyl)piperidine-4-carboxamide], the IC50 is above 10000 nM.

`Cc1cc(-c2ccnc(N)n2)ccc1CNC(=O)c1cnn(C)c1` [Example I-80, N-(4-(2-aminopyrimidin-4-yl)-2-methylbenzyl)-1-methyl-1H-pyrazole-4-carboxamide]: the IC50 fell in the range of 1000 to 10000 nM.

On to `Cc1nc(-c2ccnc(Nc3cnn(C)c3)c2)ccc1CNC(=O)c1cnc(C(C)(C)C)s1` [Example I-102, 2-(tert-butyl)-N-((6-methyl-2′-((1-methyl-1H-pyrazol-4-yl)amino)-[2,4′-bipyridin]-5-yl)methyl)thiazole-5-carboxamide], for which the IC50 was 10 to 99 nM.

On to `Cc1cc(-c2ccnc(Nc3cnn(C)c3)n2)ccc1C(CO)NC(=O)c1cc2c(s1)CCOC2` (stereo not drawn) [Example I-109, N-(2-hydroxy-1-(2-methyl-4-(2-((1-methyl-1H-pyrazol-4-yl)amino)pyrimidin-4-yl)phenyl)ethyl)-6,7-dihydro-4H-thieno[3,2-c]pyran-2-carboxamide], for which the IC50 lay in the range of 10 to 99 nM.

In the case of `Cc1cc(-c2ccnc(Nc3cnn(C)c3)n2)ccc1CNC(=O)c1ccc(Cl)c(Cl)c1` [Example I-8, 3,4-dichloro-N-(2-methyl-4-(2-((1-methyl-1H-pyrazol-4-yl)amino)pyrimidin-4-yl)benzyl)benzamide], the IC50 was below 10 nM.

As to `Cc1cc(-c2ccnc(Nc3cnn(C)c3)n2)ccc1CNC(=O)c1ccn(C)c1` [Example I-155, 1-Methyl-N-(2-methyl-4-(2-((1-methyl-1H-pyrazol-4-yl)amino)pyrimidin-4-yl)benzyl)-1H-pyrrole-3-carboxamide], the half-inhibitory concentration (IC50) was in the range of 10 to 99 nM.

Regarding `Cc1cc(-c2ccnc(Nc3cnn(C)c3)n2)ccc1CNC(=O)c1cc2c(s1)CCNC2C` (stereo not drawn) [Example I-14, 4-methyl-N-(2-methyl-4-(2-((1-methyl-1H-pyrazol-4-yl)amino)pyrimidin-4-yl)benzyl)-4,5,6,7-tetrahydrothieno[3,2-c]pyridine-2-carboxamide], the IC50 lay within 10 to 99 nM.

With `Cc1nc(-c2ccnc(Nc3cnn(C)c3)n2)ccc1CNC(=O)c1cnc(C(C)(C)C)s1` [Example I-103, 2-(tert-butyl)-N-((2-methyl-6-(2-((1-methyl-1H-pyrazol-4-yl)amino)pyrimidin-4-yl)pyridin-3-yl)methyl)thiazole-5-carboxamide], the IC50 lay within 10 to 99 nM.

In the case of `Cc1cc(-c2ccnc(Nc3cnn(C)c3)n2)ccc1C(C)NC(=O)c1cc2c(s1)CCOC2` (stereo not drawn) [Example I-105, N-(1-(2-methyl-4-(2-((1-methyl-1H-pyrazol-4-yl)amino)pyrimidin-4-yl)phenyl)ethyl)-6,7-dihydro-4H-thieno[3,2-c]pyran-2-carboxamide], the IC50 was in the range of 10 to 99 nM.

On to `Cc1cc(-c2ccnc(Nc3cnn(C)c3)n2)ccc1C(C)NC(=O)c1cnc(C(C)(C)C)s1` (stereo not drawn) [Example I-106, 2-(tert-butyl)-N-(1-(2-methyl-4-(2-((1-methyl-1H-pyrazol-4-yl)amino)pyrimidin-4-yl)phenyl)ethyl)thiazole-5-carboxamide], for which the IC50 was below 10 nM.

In the case of `Cc1cc(-c2ccnc(Nc3cnn(C)c3)n2)ccc1CNC(=O)[C@H]1CC[C@H](C(F)(F)F)CC1` [Example I-11, trans-N-(2-methyl-4-(2-((1-methyl-1H-pyrazol-4-yl)amino)pyrimidin-4-yl)benzyl)-4-(trifluoromethyl)cyclohexanecarboxamide], the IC50 was 10 to 99 nM.

Consider `Cc1cc(-c2ccnc(N)n2)ccc1CNC(=O)c1nc2c(s1)CNCC2` [Example I-75, N-(4-(2-aminopyrimidin-4-yl)-2-methylbenzyl)-4,5,6,7-tetrahydrothiazolo[5,4-c]pyridine-2-carboxamide], for which the half-inhibitory concentration (IC50) is 1000 to 10000 nM.

On to `Cc1cc(-c2ccnc(N)n2)ccc1CNC(=O)c1cc2n(n1)CCCNC2` [Example I-72, N-(4-(2-aminopyrimidin-4-yl)-2-methylbenzyl)-5,6,7,8-tetrahydro-4H-pyrazolo[1,5-a][1,4]diazepine-2-carboxamide], for which the IC50 was in the range of 1000 to 10000 nM.

Consider `Cc1cc(-c2ccnc(N)n2)ccc1CNC(=O)c1cc2c(s1)CCN(C)C2` [Example I-141, N-(4-(2-aminopyrimidin-4-yl)-2-methylbenzyl)-5-methyl-4,5,6,7-tetrahydrothieno[3,2-c]pyridine-2-carboxamide], for which the IC50 lay within 100 to 999 nM.

For the compound `Cc1cc(-c2ccnc(NC(=O)C3CCN(C)CC3)c2)ccc1CNC(=O)c1cnc(C(C)(C)C)s1` [Example I-71, 2-(tert-butyl)-N-(2-methyl-4-(2-(1-methylpiperidine-4-carboxamido)pyridin-4-yl)benzyl)thiazole-5-carboxamide], the IC50 lay within 10 to 99 nM.

With `Cc1cc(-c2ccnc(N)n2)ccc1CNC(=O)c1cc2c(s1)CNCC2` [Example I-82, N-(4-(2-aminopyrimidin-4-yl)-2-methylbenzyl)-4,5,6,7-tetrahydrothieno[2,3-c]pyridine-2-carboxamide], the 50% inhibitory concentration (IC50) fell in the range of 100 to 999 nM.

Consider `CNCc1cc(-c2ccnc(N)n2)ccc1CNC(=O)c1cc2c(s1)CCCC2` [Example I-145, N-(4-(2-aminopyrimidin-4-yl)-2-((methylamino)methyl)benzyl)-4,5,6,7-tetrahydrobenzo[b]thiophene-2-carboxamide], for which the IC50 lay within 100 to 999 nM.

Turning to `Cc1cc(-c2ccnc(Nc3c(C)nn(C)c3C)n2)ccc1CNC(=O)c1cnc(C(C)(C)C)s1` [Example I-53, 2-(tert-butyl)-N-(2-methyl-4-(2-((1,3,5-trimethyl-1H-pyrazol-4-yl)amino)pyrimidin-4-yl)benzyl)thiazole-5-carboxamide], the IC50 lay within 100 to 999 nM.

For the compound `Cc1cc(-c2ccnc(NC3CCOCC3)n2)ccc1CNC(=O)c1cnc(C(C)(C)C)s1` [Example I-26, 2-(tert-butyl)-N-(2-methyl-4-(2-((tetrahydro-2H-pyran-4-yl)amino)pyrimidin-4-yl)benzyl)thiazole-5-carboxamide], the IC50 lay within 1000 to 10000 nM.

For `CN(Cc1cc(-c2ccnc(N)n2)ccc1CNC(=O)c1cc2c(s1)CCCC2)C(=O)OC(C)(C)C` [Example I-144, tert-butyl 5-(2-aminopyrimidin-4-yl)-2-((4,5,6,7-tetrahydrobenzo[b]thiophene-2-carboxamido)methyl)benzyl(methyl)carbamate], the IC50 fell in the range of 10 to 99 nM.

Consider `Cc1cc(-c2cc(Nc3cc4n(n3)CCCN(C)C4)ncn2)ccc1CNC(=O)c1cnc(C(C)(C)C)s1` [Example I-147, 2-(tert-butyl)-N-(2-methyl-4-(6-((5-methyl-5,6,7,8-tetrahydro-4H-pyrazolo[1,5-a][1,4]diazepin-2-yl)amino)pyrimidin-4-yl)benzyl)thiazole-5-carboxamide], for which the IC50 is below 10 nM.

On to `Cc1cc(-c2ccnc(Nc3cnn(C[C@@H](N)CO)c3)n2)ccc1CNC(=O)c1cnc(C(C)(C)C)s1` [Example I-133, (R)—N-(4-(2-((1-(2-amino-3-hydroxypropyl)-1H-pyrazol-4-yl)amino)pyrimidin-4-yl)-2-methylbenzyl)-2-(tert-butyl)thiazole-5-carboxamide], for which the IC50 is below 10 nM.

For `CN1CCN(c2ccc(Nc3nccc(-c4ccc5c(c4)CCCC5NC(=O)c4cnc(C(C)(C)C)s4)n3)nc2)CC1` (stereo not drawn) [Example I-96, 2-(tert-butyl)-N-(6-(2-((5-(4-methylpiperazin-1-yl)pyridin-2-yl)amino)pyrimidin-4-yl)-1,2,3,4-tetrahydronaphthalen-1-yl)thiazole-5-carboxamide], the IC50 fell in the range of 10 to 99 nM.

For `Cc1cc(-c2ccnc(N)n2)ccc1CNC(=O)c1cn2c(n1)CNCC2` [Example I-74, N-(4-(2-aminopyrimidin-4-yl)-2-methylbenzyl)-5,6,7,8-tetrahydroimidazo[1,2-a]pyrazine-2-carboxamide], the IC50 fell in the range of 1000 to 10000 nM.

In the case of `Cc1nnc(Nc2nccc(-c3ccc(CNC(=O)c4cnc(C(C)(C)C)s4)c(C)c3)n2)s1` [Example I-59, 2-(tert-butyl)-N-(2-methyl-4-(2-((5-methyl-1,3,4-thiadiazol-2-yl)amino)pyrimidin-4-yl)benzyl)thiazole-5-carboxamide], the IC50 is 10 to 99 nM.

As a reminder, the IC50 is the concentration that inhibits the measured activity by half.
